Series [1] has as its target T1, Nuclear receptor ROR-beta (Homo sapiens, UniProt Q92753).
T1 sequence (Q92753 whole entry): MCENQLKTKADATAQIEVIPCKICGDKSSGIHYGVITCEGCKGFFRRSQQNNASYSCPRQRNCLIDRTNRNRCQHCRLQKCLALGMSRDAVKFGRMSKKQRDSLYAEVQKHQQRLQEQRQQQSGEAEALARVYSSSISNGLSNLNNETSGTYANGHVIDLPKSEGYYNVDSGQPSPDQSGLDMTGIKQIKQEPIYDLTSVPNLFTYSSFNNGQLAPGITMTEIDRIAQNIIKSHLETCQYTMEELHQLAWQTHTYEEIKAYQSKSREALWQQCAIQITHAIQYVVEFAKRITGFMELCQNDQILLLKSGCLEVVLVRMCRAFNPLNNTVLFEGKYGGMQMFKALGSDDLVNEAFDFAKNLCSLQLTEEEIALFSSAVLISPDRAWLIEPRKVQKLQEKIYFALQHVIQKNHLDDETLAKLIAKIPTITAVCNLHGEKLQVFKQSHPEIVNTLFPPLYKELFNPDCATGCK
In words: Activity at RORbeta (unknown origin).

The nature of series [2]: Half life in mouse liver microsomes. It is filed as ADME, Microsome. On the technique in general: Liver microsomes are vesicles of endoplasmic reticulum, rich in cytochrome P450 enzymes.
Series [3] addresses T2, Oxysterols receptor LXR-alpha (Homo sapiens, UniProt Q13133).
T2 sequence (Q13133 whole entry): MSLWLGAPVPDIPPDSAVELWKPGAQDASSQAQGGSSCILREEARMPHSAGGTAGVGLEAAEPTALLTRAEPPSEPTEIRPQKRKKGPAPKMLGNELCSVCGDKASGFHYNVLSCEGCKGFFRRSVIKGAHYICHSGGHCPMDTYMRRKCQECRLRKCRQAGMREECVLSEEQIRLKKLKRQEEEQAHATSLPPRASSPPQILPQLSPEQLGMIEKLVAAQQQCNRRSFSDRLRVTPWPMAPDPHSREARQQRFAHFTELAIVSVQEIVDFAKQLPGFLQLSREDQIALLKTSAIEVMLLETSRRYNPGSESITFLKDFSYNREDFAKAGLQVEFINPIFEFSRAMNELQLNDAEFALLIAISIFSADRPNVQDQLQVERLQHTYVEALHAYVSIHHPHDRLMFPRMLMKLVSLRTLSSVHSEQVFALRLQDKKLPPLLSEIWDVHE
In words: Activity at LXRalpha (unknown origin).

The target in series [4] is T3, Oxysterols receptor LXR-beta (Homo sapiens, UniProt P55055).
T3 sequence (P55055 whole entry): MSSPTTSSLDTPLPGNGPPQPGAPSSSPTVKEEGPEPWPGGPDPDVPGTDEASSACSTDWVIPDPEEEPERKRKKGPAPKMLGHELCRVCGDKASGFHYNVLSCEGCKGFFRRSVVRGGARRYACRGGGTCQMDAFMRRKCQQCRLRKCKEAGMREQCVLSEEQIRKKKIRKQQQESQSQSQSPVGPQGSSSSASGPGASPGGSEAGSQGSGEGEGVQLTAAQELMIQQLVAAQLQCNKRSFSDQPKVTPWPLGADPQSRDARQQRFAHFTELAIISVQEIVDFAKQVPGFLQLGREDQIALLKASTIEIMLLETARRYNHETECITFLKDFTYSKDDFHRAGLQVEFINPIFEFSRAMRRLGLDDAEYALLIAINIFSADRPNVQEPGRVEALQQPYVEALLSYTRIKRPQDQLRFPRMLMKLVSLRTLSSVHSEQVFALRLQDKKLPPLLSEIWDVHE
In words: Activity at LXRbeta (unknown origin).

A short description of series [5]: Half life in human liver microsomes. It is filed as ADME, Microsome.
Series [6] deals with T4, Nuclear receptor subfamily 1 group I member 2 (Homo sapiens, UniProt O75469).
T4 sequence (O75469 whole entry): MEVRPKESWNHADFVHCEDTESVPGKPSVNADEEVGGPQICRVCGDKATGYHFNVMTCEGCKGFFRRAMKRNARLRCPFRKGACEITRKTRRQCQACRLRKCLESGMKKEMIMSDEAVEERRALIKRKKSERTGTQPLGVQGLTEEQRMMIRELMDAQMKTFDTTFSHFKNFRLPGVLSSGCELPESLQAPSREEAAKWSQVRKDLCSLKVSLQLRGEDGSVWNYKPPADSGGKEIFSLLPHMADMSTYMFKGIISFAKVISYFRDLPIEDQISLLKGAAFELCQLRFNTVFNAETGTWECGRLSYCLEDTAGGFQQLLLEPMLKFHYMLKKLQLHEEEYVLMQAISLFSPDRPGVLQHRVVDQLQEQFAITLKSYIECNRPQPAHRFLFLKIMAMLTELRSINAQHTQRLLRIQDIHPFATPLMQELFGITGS
Kind of series: Activity at PXR (unknown origin).

A short description of series [7]: Half life in rat liver microsomes. It counts as ADME, Microsome.
The target in series [8] is T5, Nuclear receptor ROR-alpha (Homo sapiens, UniProt P35398).
T5 sequence (P35398 whole entry): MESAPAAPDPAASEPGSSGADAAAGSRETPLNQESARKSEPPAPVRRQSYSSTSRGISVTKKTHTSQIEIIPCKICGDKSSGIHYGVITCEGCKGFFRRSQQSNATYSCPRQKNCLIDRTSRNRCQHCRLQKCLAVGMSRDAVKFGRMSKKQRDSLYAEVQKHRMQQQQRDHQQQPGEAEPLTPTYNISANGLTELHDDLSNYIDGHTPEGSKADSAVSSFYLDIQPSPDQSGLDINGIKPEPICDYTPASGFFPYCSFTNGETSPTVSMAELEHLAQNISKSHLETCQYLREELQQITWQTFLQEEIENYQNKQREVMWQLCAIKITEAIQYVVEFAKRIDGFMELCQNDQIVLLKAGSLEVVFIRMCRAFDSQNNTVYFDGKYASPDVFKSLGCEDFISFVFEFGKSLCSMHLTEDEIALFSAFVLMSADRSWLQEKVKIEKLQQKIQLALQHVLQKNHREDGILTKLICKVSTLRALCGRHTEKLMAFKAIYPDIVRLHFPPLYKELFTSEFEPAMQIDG
In words: Activity at RORalpha (unknown origin).

Series [9] is described as follows: Unbound fraction in human serum. It counts as ADME, cell-free.

As a reminder, the IC50 is the midpoint of a concentration-inhibition curve. By half-life is commonly meant the time in which the quantity being followed falls by half. High values mean slow decline, low ones rapid decline. `O=C(O)[C@H]1CC[C@H](C(=O)N2CC[C@@]3(S(=O)(=O)c4cccc(F)c4)c4ccc(C(F)(C(F)(F)F)C(F)(F)F)cc4CC[C@@H]23)CC1`: the IC50 in series [1] is over 10 µM; in series [3], over 10 µM; in series [4], over 10 µM; in series [6], over 40 µM; in series [8] it was over 10 µM. Also, the results for the half-life in series [2], in [5] and in [7] were 1.65 h, 1.83 h and over 2 h, respectively.

For `C[C@]1(C(=O)N2CC[C@@]3(S(=O)(=O)c4ccc(F)cc4)c4ccc(C(F)(C(F)(F)F)C(F)(F)F)cc4CC[C@@H]23)CC[C@H](C(=O)O)CC1`, the IC50 in series [1] is over 10 µM; in [3] it was over 10 µM; in series [4], over 10 µM; in series [6], over 40 µM; in [8] it was over 10 µM. In addition, the half-life in [2] came to 1.4 h; in series [5], 1.82 h; in series [7] it was 1.78 h.

Take `O=C(O)C12CC(C(=O)N3CC[C@@]4(S(=O)(=O)c5ccc(F)cc5)c5ccc(C(F)(C(F)(F)F)C(F)(F)F)cc5CC[C@@H]34)(C1)C2`: the half-maximal inhibitory concentration (IC50) in series [1] was over 10 µM; in [3], over 10 µM; in [4] it was over 10 µM; in series [6] it was over 40 µM; in [8] it was over 10 µM.

The term fraction unbound denotes the share of the substance not bound to proteins or other matrix. With `O=C(N1CC[C@@]2(S(=O)(=O)c3ccc(F)cc3)c3ccc(C(F)(C(F)(F)F)C(F)(F)F)cc3NC[C@@H]12)C1(O)CCS(=O)(=O)CC1`, the IC50 in series [1] is over 10 µM; in series [3], over 10 µM; in series [4] it was over 10 µM; in series [6] it was over 40 µM; in [8], over 10 µM. This compound also displayed a fraction unbound in series [9] of 0.006.

As for `O=C(O)[C@H]1CC[C@H](C(=O)N2CC[C@@]3(S(=O)(=O)c4cccc(Cl)c4)c4ccc(C(F)(C(F)(F)F)C(F)(F)F)cc4CC[C@@H]23)CC1`, the 50% inhibitory concentration (IC50) in series [1] is over 10 µM; in [3], over 10 µM; in series [4], over 10 µM; in series [6], over 40 µM; in series [8] it was over 10 µM. In addition, the half-life in series [2], in series [5] and in series [7] was over 2 h in each case.

Turning to `CC(=O)N1CCC(C(=O)N2CC[C@@]3(S(=O)(=O)c4ccc(F)cc4)c4ccc(C(F)(C(F)(F)F)C(F)(F)F)cc4CC[C@@H]23)CC1`, the IC50 in series [1] was over 10 µM; in series [3], over 10 µM; in series [4] it was over 10 µM; in [6], over 40 µM; in series [8], over 10 µM. The half-life in series [2] was 0.85 h; in series [5], 0.35 h; in series [7], 0.817 h.

With `Cc1cccc(S(=O)(=O)[C@@]23CCN(C(=O)[C@H]4CC[C@H](C(=O)O)CC4)[C@@H]2CCc2cc(C(F)(C(F)(F)F)C(F)(F)F)ccc23)c1`, the half-inhibitory concentration (IC50) in series [1] is over 10 µM; in [3], over 10 µM; in series [4], over 10 µM; in series [6] it was over 40 µM; in series [8], over 10 µM. Also, the figures for the half-life in series [2], in series [5] and in series [7] were over 2 h, over 2 h and 0.417 h, respectively.

`O=C(C1CCS(=O)(=O)CC1)N1CC[C@@]2(S(=O)(=O)c3ccc(F)cc3)c3ccc(C(F)(C(F)(F)F)C(F)(F)F)cc3CC[C@@H]12`: the IC50 is over 10 µM in series [1]; over 10 µM in series [3]; over 10 µM in [4]; over 40 µM in series [6]; over 10 µM in series [8]. Moreover, the values for the half-life in [2], in series [5] and in series [7] were over 2 h, over 2 h and 1.1 h, respectively.

Consider `O=C(O)[C@H]1CC[C@H](C(=O)N2CC[C@@]3(S(=O)(=O)c4ccc(Cl)cc4)c4ccc(C(F)(C(F)(F)F)C(F)(F)F)cc4CC[C@@H]23)CC1`, for which the concentration for half-maximal inhibition (IC50) in series [1] is over 10 µM; in series [3] it was over 10 µM; in series [4], over 10 µM; in [6] it was over 40 µM; in series [8], over 10 µM. Further, the half-life in series [2], in series [5] and in series [7] was over 2 h throughout.

For `Cc1ccc(S(=O)(=O)[C@@]23CCN(C(=O)[C@H]4CC[C@H](C(=O)O)CC4)[C@@H]2CCc2cc(C(F)(C(F)(F)F)C(F)(F)F)ccc23)cc1`, the concentration for half-maximal inhibition (IC50) in series [1] was over 10 µM; in series [3] it was over 10 µM; in [4], over 10 µM; in [6], over 40 µM; in series [8], over 10 µM. The half-life in [2] is over 2 h; in series [5] it was 1.37 h; in series [7], 1.02 h.

Regarding `O=C(N1CC[C@@]2(S(=O)(=O)c3ccc(F)cc3)c3ccc(C(F)(C(F)(F)F)C(F)(F)F)cc3OC[C@@H]12)C1(O)CCS(=O)(=O)CC1`, the concentration for half-maximal inhibition (IC50) in series [1] is over 10 µM; in series [3], over 10 µM; in series [4] it was over 10 µM; in series [6], over 40 µM; in series [8] it was over 10 µM. Further, the half-life in [2] is over 2 h; in [5], over 2 h; in series [7], 1.58 h.

With `O=C(O)[C@H]1CC[C@H](C(=O)N2CC[C@@]3(S(=O)(=O)Cc4ccccc4)c4ccc(C(F)(C(F)(F)F)C(F)(F)F)cc4CC[C@@H]23)CC1`, the 50% inhibitory concentration (IC50) in series [1] was over 10 µM; in series [3] it was over 10 µM; in series [4] it was over 10 µM; in series [6], over 40 µM; in series [8], over 10 µM.

Turning to `C[C@]1(C(=O)O)CC[C@H](C(=O)N2CC[C@@]3(S(=O)(=O)c4ccc(F)cc4)c4ccc(C(F)(C(F)(F)F)C(F)(F)F)cc4CC[C@@H]23)CC1`, the IC50 in [1] is over 10 µM; in [3], over 10 µM; in [4], over 10 µM; in series [6] it was over 40 µM; in series [8], over 10 µM. Moreover, the half-life in series [2] was over 2 h; in series [5], over 2 h; in series [7], 1.73 h.

With `O=C(O)[C@H]1CC[C@@H](C(=O)N2CC[C@@]3(S(=O)(=O)c4ccc(F)cc4)c4ccc(C(F)(C(F)(F)F)C(F)(F)F)cc4CC[C@@H]23)CC1`, the half-maximal inhibitory concentration (IC50) in [1] is over 10 µM; in [3], over 10 µM; in series [4] it was over 10 µM; in [6], over 40 µM; in series [8], over 10 µM.

(Values after ChEMBL document CHEMBL4334512, “Rationally Designed, Conformationally Constrained Inverse Agonists of RORγt-Identification of a Potent, Selective Series with Biologic-Like in Vivo Efficacy” (J Med Chem, 2019).)
